Biological target: T1, TRIB3 (Tribbles homolog 3) (Homo sapiens, UniProt Q96RU7)
T1 construct: endogenous untagged full-length protein in RIPA lysate of MDA-MB-231 cells, detected by Western blot (anti-TRIB3 Abcam ab75846); NP_066981.2 printed for the homology model
T1 sequence (Q96RU7 1-358): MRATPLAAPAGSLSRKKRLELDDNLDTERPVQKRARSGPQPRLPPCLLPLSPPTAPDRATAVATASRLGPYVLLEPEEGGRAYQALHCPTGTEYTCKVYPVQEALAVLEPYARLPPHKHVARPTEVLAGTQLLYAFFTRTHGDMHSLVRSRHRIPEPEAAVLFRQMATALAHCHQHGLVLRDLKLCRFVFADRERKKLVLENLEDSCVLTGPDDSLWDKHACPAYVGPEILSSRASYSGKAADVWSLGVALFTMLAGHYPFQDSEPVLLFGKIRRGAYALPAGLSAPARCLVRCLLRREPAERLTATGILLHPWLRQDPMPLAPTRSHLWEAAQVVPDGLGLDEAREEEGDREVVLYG
Assay: CETSA (cell lysate, Western blot)
Assay type: biochemical
Details: 10 uM PB, 1 h, MDA-MB-231 RIPA lysate; 35-60 C for 10 min

O=C(O)CC(O)(CC(=O)OCc1ccc(O[C@@H]2O[C@H](CO)[C@@H](O)[C@H](O)[C@H]2O)cc1)C(=O)OCc1ccc(O[C@@H]2O[C@H](CO)[C@@H](O)[C@H](O)[C@H]2O)cc1 (stereo partly shown) [PB, Parishin B]
CETSA (cell lysate, Western blot): PB enhances the thermal stability of TRIB3, resulting in improved thermal stabilization of TRIB3

From paper PMC11775015, “Parishin B blocking TRIB3-AKT1 interaction inhibits breast cancer lung metastasis” (Frontiers in Pharmacology, 2025)
